Assay results taken from patent US9926302B2, “Heteroaryl substituted heterocyclyl sulfones” (priority 2014, dated 2018).

What follows are compounds tested against T1, Human CaV2.2 channels (Homo sapiens, UniProt Q00975) (assay: Fluorescence assay for CaV2.2 channels using potassium depolarization to induce channel opening (FLIPR, Fluo 4)). Conditions: 3 μM test compound; alternative assay buffer 30 mM KCl (inactivated channel state); HEK293 cells stably expressing human CaV2.2.
T1 construct: expressed in transfected cells
Type: cell-based
Text: In the process, the Ca^2+ influx is quantified in the FLIPR assay with the aid of a Ca^2+-sensitive dye (type Fluo-4, Molecular Probes Europe BV, Leiden, the Netherlands) in a fluorescent imaging plate reader (FLIPR 3, Molecular Devices, Sunnyvale, USA), as described hereinafter.
2.1 Fluorescence Assay for CaV2.2 Channels Using Potassium Depolarization to Induce Channel Opening
Human CaV2.2 channels were stably expressed in HEK293 cells together with alpha2-delta and beta subunits of voltage gated calcium channels. In addition, an inwardly rectifying potassium channel (Kir2.3) was stably expressed in these cells to augment control of the cell membrane potential by the concentration of extracellular potassium ions. Raise of the extracellular potassium concentration leads to depolarization of the membrane potential and thus regulates the voltage dependent state of CaV2.2 channels. For preparation, cells were seeded in black poly-D-lysine coated 96-well plates (Becton Dickinson, Biocoat 4640) in 100 μL medium [500 mL DMEM/F-12 plus Glutamax (Invitrogen 31331-093) plus 5.5 mL MEM NEAA 100× (Invitrogen 11140-035) plus 50 mL FBS decomplemented (Invitrogen 10270-106) plus 200 μg/mL Geneticin (Invitrogen 10131-027) plus 50 μg/mL Hygromycin B (Invitrogen 10687-010) plus 2 μg/mL Blasticidin (anti-bl5b Invivo-Gen) plus 0.2 μg/mL Puromycin (A 11138-03)] at a cell density of 30.000 cells per well. Plates were incubated at 37° C. (5% CO2) for 20 to 23 h. On the day of experiment medium was discarded and cells were loaded with Fluo 4 by addition of 100 μL of basic assay buffer (10 mM HEPES, 1 mM KCl, 149 mM NaCl, 0.8 mM CaCl2, 1.7 mM MgCl2, 10 mM Glucose, 0.1% BSA. pH 7.4) containing 2 μM Fluo 4 (Molecular Probes; F-14201), 0.01% pluronic acid (Molecular Probes; P-6866) and 2.5 mM probenecid (Molecular Probes; P36400). Cells were incubated in the dark at 25° C. for 60 min. Then dye containing buffer was discarded and 100 μL basic (1 mM KCl) or alternative (30 mM KCl) assay buffer was added. The alternative assay buffer contained altered concentrations of KCl (30 mM) and NaCl (120 mM) and was used in order to promote the inactivated channel state. After that 25 μL of basic or alternative assay buffer with or without test compound were added and cells were incubated again in the dark at 25° C. for 15 min. Fluorescence intensity was measured on a FLIPR 3 instrument (Molecular Devices Corp., Sunnyvale, Calif.) with excitation at 480 nm and emission at 535 nm. After continuously reading fluorescence for 30 sec, 50 μL of basic assay buffer containing 210 mM KCl (NaCl omitted) were added for depolarization. Peak fluorescent signal intensity was determined and the amplitude of the peak signal, normalized to base line, was used to measure channel inhibition by test compounds.

T1 sequence (P54289 947-1103): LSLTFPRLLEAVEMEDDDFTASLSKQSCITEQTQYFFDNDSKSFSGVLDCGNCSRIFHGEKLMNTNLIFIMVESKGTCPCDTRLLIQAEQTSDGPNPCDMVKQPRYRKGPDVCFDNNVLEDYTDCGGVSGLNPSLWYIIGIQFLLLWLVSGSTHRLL
T1 sequence (P54289 25-946): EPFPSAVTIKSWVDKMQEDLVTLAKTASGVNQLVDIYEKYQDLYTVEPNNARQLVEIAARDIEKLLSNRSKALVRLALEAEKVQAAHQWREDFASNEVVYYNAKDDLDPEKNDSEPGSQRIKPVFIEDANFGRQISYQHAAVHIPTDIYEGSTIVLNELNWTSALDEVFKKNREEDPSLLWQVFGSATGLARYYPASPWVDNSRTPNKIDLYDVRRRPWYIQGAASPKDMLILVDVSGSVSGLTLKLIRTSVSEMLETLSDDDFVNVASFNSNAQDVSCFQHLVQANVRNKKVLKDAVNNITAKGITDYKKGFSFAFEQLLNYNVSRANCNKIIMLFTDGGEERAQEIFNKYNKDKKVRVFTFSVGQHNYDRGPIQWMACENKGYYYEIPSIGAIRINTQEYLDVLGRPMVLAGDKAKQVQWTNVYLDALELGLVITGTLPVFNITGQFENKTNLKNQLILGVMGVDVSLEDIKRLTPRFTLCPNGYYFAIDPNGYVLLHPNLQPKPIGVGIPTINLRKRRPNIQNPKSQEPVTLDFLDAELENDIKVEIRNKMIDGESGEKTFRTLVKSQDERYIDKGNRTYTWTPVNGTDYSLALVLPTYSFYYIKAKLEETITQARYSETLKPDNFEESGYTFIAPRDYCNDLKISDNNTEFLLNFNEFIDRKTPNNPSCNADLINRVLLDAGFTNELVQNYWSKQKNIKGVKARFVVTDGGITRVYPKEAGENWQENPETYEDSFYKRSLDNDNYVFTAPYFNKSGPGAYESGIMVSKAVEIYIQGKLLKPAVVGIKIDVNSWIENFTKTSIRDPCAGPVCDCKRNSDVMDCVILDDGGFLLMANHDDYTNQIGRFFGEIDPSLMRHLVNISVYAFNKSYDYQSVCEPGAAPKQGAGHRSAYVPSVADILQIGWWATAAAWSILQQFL
T1 sequence (P54284 whole entry, further chain): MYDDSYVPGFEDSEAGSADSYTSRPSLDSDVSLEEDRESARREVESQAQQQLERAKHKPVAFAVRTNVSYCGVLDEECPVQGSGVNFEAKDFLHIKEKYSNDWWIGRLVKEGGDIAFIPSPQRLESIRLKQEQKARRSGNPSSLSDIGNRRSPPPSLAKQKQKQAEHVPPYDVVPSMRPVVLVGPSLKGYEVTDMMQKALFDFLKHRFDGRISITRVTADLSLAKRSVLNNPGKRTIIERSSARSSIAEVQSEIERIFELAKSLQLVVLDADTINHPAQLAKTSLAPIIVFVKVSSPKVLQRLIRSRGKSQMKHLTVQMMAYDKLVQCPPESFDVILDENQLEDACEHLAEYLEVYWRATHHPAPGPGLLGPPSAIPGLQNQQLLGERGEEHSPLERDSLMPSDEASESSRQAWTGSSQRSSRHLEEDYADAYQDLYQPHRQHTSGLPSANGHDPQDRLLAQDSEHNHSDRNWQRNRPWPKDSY
T1 sequence (Q00975 whole entry): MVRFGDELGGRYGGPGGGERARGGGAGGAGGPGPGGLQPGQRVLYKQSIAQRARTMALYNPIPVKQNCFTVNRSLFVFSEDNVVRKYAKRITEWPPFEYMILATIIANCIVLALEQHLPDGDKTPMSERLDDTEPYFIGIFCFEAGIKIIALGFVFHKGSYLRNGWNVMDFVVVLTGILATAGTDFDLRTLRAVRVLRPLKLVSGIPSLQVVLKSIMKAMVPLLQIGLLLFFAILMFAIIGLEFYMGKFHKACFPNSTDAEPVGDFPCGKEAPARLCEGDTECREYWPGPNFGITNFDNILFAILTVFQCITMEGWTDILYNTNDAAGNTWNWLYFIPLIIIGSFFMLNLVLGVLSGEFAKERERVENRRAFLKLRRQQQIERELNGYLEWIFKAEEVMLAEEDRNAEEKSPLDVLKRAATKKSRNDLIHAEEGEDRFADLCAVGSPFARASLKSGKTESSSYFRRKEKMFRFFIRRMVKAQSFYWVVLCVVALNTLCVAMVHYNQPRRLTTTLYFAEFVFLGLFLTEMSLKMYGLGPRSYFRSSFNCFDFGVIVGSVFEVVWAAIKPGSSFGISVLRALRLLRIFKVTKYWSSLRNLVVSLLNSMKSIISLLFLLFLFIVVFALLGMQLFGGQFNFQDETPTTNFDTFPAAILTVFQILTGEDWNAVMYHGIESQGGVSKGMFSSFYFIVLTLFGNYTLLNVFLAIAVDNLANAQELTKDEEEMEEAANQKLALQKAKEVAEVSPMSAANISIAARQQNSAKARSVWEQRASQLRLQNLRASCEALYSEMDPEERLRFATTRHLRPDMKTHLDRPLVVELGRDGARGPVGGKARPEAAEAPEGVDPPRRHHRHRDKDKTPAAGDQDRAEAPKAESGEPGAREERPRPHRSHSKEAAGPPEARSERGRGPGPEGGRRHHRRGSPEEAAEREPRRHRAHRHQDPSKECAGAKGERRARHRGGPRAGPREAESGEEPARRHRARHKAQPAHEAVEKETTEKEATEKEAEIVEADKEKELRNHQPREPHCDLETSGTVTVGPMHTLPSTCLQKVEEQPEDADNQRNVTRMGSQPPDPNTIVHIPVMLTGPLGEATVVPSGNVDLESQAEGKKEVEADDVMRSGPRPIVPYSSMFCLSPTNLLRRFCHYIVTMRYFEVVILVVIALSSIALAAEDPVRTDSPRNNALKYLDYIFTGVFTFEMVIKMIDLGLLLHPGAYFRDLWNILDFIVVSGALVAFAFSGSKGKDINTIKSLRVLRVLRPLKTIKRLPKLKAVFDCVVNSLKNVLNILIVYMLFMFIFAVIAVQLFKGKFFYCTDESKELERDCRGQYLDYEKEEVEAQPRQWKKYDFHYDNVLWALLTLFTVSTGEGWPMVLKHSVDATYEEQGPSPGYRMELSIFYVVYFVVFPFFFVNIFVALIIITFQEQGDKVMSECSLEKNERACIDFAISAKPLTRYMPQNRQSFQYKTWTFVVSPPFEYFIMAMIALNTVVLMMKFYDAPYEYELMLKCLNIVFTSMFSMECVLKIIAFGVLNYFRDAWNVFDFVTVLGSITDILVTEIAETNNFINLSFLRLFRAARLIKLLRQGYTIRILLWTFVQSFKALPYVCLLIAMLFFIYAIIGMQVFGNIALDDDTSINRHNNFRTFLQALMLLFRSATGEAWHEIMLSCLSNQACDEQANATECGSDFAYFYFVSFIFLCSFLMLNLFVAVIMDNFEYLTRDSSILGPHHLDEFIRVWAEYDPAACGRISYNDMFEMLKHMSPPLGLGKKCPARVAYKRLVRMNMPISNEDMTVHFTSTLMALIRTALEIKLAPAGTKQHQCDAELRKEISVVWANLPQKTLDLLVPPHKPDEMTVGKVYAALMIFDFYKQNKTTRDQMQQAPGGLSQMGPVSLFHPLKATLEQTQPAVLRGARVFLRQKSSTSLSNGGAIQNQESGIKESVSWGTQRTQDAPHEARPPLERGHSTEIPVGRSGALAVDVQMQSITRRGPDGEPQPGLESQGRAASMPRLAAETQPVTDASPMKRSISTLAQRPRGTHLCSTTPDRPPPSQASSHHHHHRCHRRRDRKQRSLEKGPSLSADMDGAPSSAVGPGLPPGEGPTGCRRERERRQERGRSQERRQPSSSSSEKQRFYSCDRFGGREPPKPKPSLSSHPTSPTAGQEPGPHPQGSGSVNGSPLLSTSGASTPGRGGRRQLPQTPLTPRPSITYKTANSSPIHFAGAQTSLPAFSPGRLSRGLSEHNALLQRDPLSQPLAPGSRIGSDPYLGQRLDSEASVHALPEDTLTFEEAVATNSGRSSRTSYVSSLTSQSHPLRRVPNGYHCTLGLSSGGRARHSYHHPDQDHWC

| SMILES | Activity Category: %-Inhib (CaV2.2) @3 μM @30 mM KCl |
| --- | --- |
| Cn1nc(S(C)(=O)=O)cc1C1CC(C)(S(=O)(=O)c2cccc(C(F)(F)F)c2)CCO1 (centres unmarked) [SC-429, 1-Methyl-3-methylsulfonyl-5-[4-methyl-4-[[3-(trifluoromethyl)phenyl]sulfonyl]-tetrahydro-pyran-2-yl]-1H-pyrazole] | C (%-Inhibition >40% up to ≤75%) |
| COc1ccc(C2CC(C)(S(=O)(=O)c3cccc(C(F)(F)F)c3)CCO2)cn1 (centres unmarked) [SC-354, 2-Methoxy-5-[4-methyl-4-[[3-(trifluoromethyl)phenyl]sulfonyl]-tetrahydro-pyran-2-yl]-pyridine] | A (%-Inhibition >95%) |
| Cn1nc(C2CC2)cc1C1CC(C)(S(=O)(=O)c2cccc(C(F)(F)F)c2)CCO1 (centres unmarked) [SC-432, 3-Cyclopropyl-1-methyl-5-[4-methyl-4-[[3-(trifluoromethyl)phenyl]sulfonyl]-tetrahydro-pyran-2-yl]-1H-pyrazole] | A (%-Inhibition >95%) |
| CC1(S(=O)(=O)c2cccc(C(F)(F)F)c2)CCOC(c2nnc(C(F)(F)F)o2)C1 (single isomer, unassigned) [SC-122, 2-[4-Methyl-4-[[3-(trifluoromethyl)phenyl]sulfonyl]-tetrahydro-pyran-2-yl]-5-(trifluoromethyl)-[1,3,4]oxadiazole] | B (%-Inhibition >75% up to ≤95%) |
| CC1(S(=O)(=O)c2cccc(Cl)c2)CCOC(c2ncc(S(C)(=O)=O)cc2Cl)C1 (centres unmarked) [SC-440, 3-Chloro-2-[4-[(3-chlorophenyl)sulfonyl]-4-methyl-tetrahydro-pyran-2-yl]-5-methylsulfonyl-pyridine] | B (%-Inhibition >75% up to ≤95%) |
| Cc1cc(S(C)(=O)=O)cnc1C1CC(C)(S(=O)(=O)c2cccc(OC(F)(F)F)c2)CCO1 (centres unmarked) [SC-449, 3-Methyl-5-methylsulfonyl-2-[4-methyl-4-[[3-(trifluoromethyloxy)-phenyl]sulfonyl]-tetrahydro-pyran-2-yl]-pyridine] | B (%-Inhibition >75% up to ≤95%) |
| CC1(S(=O)(=O)c2cccc(C(F)(F)F)c2)CCOC(c2ccc(C3CC3)nc2)C1 (centres unmarked) [SC-348, 2-Cyclopropyl-5-[4-methyl-4-[[3-(trifluoromethyl)phenyl]sulfonyl]-tetrahydro-pyran-2-yl]-pyridine] | A (%-Inhibition >95%) |
| COc1cc(C#N)c(C2CC(C)(S(=O)(=O)c3cccc(C(F)(F)F)c3)CCO2)cn1 (centres unmarked) [SC-261, 2-Methoxy-5-[4-methyl-4-[[3-(trifluoromethyl)phenyl]sulfonyl]-tetrahydro-pyran-2-yl]-isonicotinonitrile] | C (%-Inhibition >40% up to ≤75%) |

Same assay, conditions: HEK293, 3 μM test compound; alternative assay buffer 30 mM KCl (inactivated channel state); HEK293 cells stably expressing human CaV2.2; read-out: Activity Category: %-Inhib (CaV2.2) @3 μM @30 mM KCl

| SMILES | inhibition at 3 µM [%] |
| --- | --- |
| O=S(=O)(c1cccc(C(F)(F)F)c1)C1CCOC(c2cccc(C(F)(F)F)n2)C1 (centres unmarked) [SC-350, 2-(Trifluoromethyl)-6-[4-[[3-(trifluoromethyl)phenyl]sulfonyl]-tetrahydro-pyran-2-yl]-pyridine] | > 95 |
| CCC1(S(=O)(=O)c2cccc(C(F)(F)F)c2)CCOC(c2ccc(C)nc2C)C1 (racemic) [SC-319, 3-[4-Ethyl-4-[[3-(trifluoromethyl)phenyl]sulfonyl]-tetrahydro-pyran-2-yl]-2,6-dimethyl-pyridine] | 40 to 75 |
| CC1(S(=O)(=O)c2cccc(C(F)(F)F)c2)CCOC(c2ccc(S(C)(=O)=O)cn2)C1 (centres unmarked) [SC-104, 5-Methylsulfonyl-2-[4-methyl-4-[[3-(trifluoromethyl)phenyl]sulfonyl]-tetrahydro-pyran-2-yl]-pyridine] | 75 to 95 |
| CC1(S(=O)(=O)c2cccc(C(F)(F)F)c2)CCOC(c2ncc(S(C)(=O)=O)cc2C(F)(F)F)C1 (centres unmarked) [SC-222, 5-Methylsulfonyl-2-[4-methyl-4-[[3-(trifluoromethyl)phenyl]sulfonyl]-tetrahydro-pyran-2-yl]-3-(trifluoromethyl)-pyridine] | 75 to 95 |
| CC1(S(=O)(=O)c2cccc(C(F)(F)F)c2)CCOC(c2noc(C3CC3)n2)C1 (single isomer, unassigned) [SC-110, 5-Cyclopropyl-3-[4-methyl-4-[[3-(trifluoromethyl)phenyl]sulfonyl]-tetrahydro-pyran-2-yl]-[1,2,4]oxadiazole] | 75 to 95 |
| CC1(S(=O)(=O)c2cccc(C(F)(F)F)c2)CCOC(c2cnc(C3CC3)cn2)C1 (racemic) [SC-328, 2-Cyclopropyl-5-[4-methyl-4-[[3-(trifluoromethyl)phenyl]sulfonyl]-tetrahydro-pyran-2-yl]-pyrazine] | > 95 |
| CC1(S(=O)(=O)c2cccc(C(F)F)c2)CCOC(c2ncc(C(F)(F)F)cc2S(C)(=O)=O)C1 (centres unmarked) [SC-212, 2-[4-[[3-(Difluoro-methyl)-phenyl]sulfonyl]-4-methyl-tetrahydro-pyran-2-yl]-3-methylsulfonyl-5-(trifluoromethyl)-pyridine] | 75 to 95 |
| CC(C)Oc1ccc(C2CC(C)(S(=O)(=O)c3cccc(C(F)(F)F)c3)CCO2)cn1 (racemic) [SC-302, 2-Isopropoxy-5-[4-methyl-4-[[3-(trifluoromethyl)phenyl]sulfonyl]-tetrahydro-pyran-2-yl]-pyridine] | > 95 |
| CC1(S(=O)(=O)c2cccc(OC(F)(F)F)c2)CCOC(c2ncc(S(C)(=O)=O)cc2Cl)C1 (centres unmarked) [SC-218, 3-Chloro-5-methylsulfonyl-2-[4-methyl-4-[[3-(trifluoromethyloxy)-phenyl]sulfonyl]-tetrahydro-pyran-2-yl]-pyridine] | 75 to 95 |
| CC1(S(=O)(=O)c2cccc(C(F)(F)F)c2)CCOC(c2ncc(Cl)cc2S(C)(=O)=O)C1 (centres unmarked) [SC-226, 5-Chloro-3-methylsulfonyl-2-[4-methyl-4-[[3-(trifluoromethyl)phenyl]sulfonyl]-tetrahydro-pyran-2-yl]-pyridine] | 75 to 95 |
| CC1(S(=O)(=O)c2cccc(C(F)(F)F)c2)CCOC(c2cnc(C3CC3)nc2)C1 (centres unmarked) [SC-205, 2-Cyclopropyl-5-[4-methyl-4-[[3-(trifluoromethyl)phenyl]sulfonyl]-tetrahydro-pyran-2-yl]-pyrimidine] | > 95 |
| CCC1(S(=O)(=O)c2cccc(C(F)(F)F)c2)CCOC(c2ccc(C(F)(F)F)cn2)C1 (centres unmarked) [SC-106, 2-[4-Ethyl-4-[[3-(trifluoromethyl)phenyl]sulfonyl]-tetrahydro-pyran-2-yl]-5-(trifluoromethyl)-pyridine] | > 95 |
| C[S+]([O-])c1cc(C(F)(F)F)cnc1C1CC(C)(S(=O)(=O)c2cccc(C(F)(F)F)c2)CCO1 (centres unmarked) [SC-228, 3-(Methylsulfinyl)-2-[4-methyl-4-[[3-(trifluoromethyl)phenyl]sulfonyl]-tetrahydro-pyran-2-yl]-5-(trifluoromethyl)-pyridine] | > 95 |
| O=S(=O)(c1cccc(C(F)(F)F)c1)C1CCOC(c2ccc(C(F)(F)F)nc2)C1 (centres unmarked) [SC-342, 2-(Trifluoromethyl)-5-[4-[[3-(trifluoromethyl)phenyl]sulfonyl]-tetrahydro-pyran-2-yl]-pyridine] | 75 to 95 |
| Cn1nc(C(F)(F)F)cc1C1CC(C)(S(=O)(=O)c2cccc(C(F)(F)F)c2)CCO1 (centres unmarked) [SC-343, 1-Methyl-5-[4-methyl-4-[[3-(trifluoromethyl)phenyl]sulfonyl]-tetrahydro-pyran-2-yl]-3-(trifluoromethyl)-1H-pyrazole] | 75 to 95 |
| CC1(S(=O)(=O)c2cccc(C(F)(F)F)c2)CCOC(c2ccc(C(F)(F)F)nc2)C1 (centres unmarked) [SC-315, 5-[4-Methyl-4-[[3-(trifluoromethyl)phenyl]sulfonyl]-tetrahydro-pyran-2-yl]-2-(trifluoromethyl)-pyridine] | > 95 |
| COc1ccc(C2CC(C)(S(=O)(=O)c3cccc(C(F)(F)F)c3)CCO2)cn1 (centres unmarked) [SC-353, 2-Methoxy-5-[4-methyl-4-[[3-(trifluoromethyl)phenyl]sulfonyl]-tetrahydro-pyran-2-yl]-pyridine] | 75 to 95 |
| CC1(S(=O)(=O)c2cccc(C(F)(F)F)c2)CCOC(c2ccc(N3CCCC3)nc2)C1 (racemic) [SC-406, 5-[4-Methyl-4-[[3-(trifluoromethyl)phenyl]sulfonyl]-tetrahydro-pyran-2-yl]-2-pyrrolidin-1-yl-pyridine] | > 95 |
